Laboratory results as given in patent EP4230620A1, “SUBSTITUTED N-AMINO-N-BENZOIC ACID URACILS, THEIR SALTS AND USE OF SAID COMPOUNDS AS HERBICIDAL AGENTS” (Bayer Aktiengesellschaft, priority 2022, dated 2023).

Legend:
Assay type in all cases: in vivo
Matricaria inodora = assay: Post-emergence herbicidal action in greenhouse against MATIN; conditions: visual rating after ca. 3 weeks
Source text: (§1) Biologische Beispiele: • Die folgenden Abkürzungen werden für die in den folgenden Tabellen aufgeführten Kultur- und Schadpflanzen verwendet: ABUTH: Abutilon theophrasti ALOMY: Alopecurus myosuroides AMARE: Amaranthus retroflexus BRSNS: Brassica napus DIGSA: Digitaria sanguinalis ECHCG: Echinochloa crus-galli GLXMA: Glycine max KCHSC: Kochia scoparia LOLRI: Lolium rigidum MATIN: Matricaria inodora ORYZA: Oryza sativa PHPBU: Pharbitis purpurea POLCO: Polygonum convolvulus SETVI: Setaria viridis VERPE: Veronica persica VIOTR: Viola tricolor TRZAS: Triticum aestivum ZEAMX: Zea mays • A. Herbizide Wirkung im Nachauflauf
(§2) Samen von mono- bzw. dikotylen Unkrautpflanzen wurden in Kunststoff- oder Holzfasertöpfen in sandigem Lehmboden ausgelegt, mit Erde abgedeckt und im Gewächshaus unter kontrollierten Wachstumsbedingungen angezogen. 2 bis 3 Wochen nach der Aussaat wurden die Versuchspflanzen im Einblattstadium behandelt. Die in Form von benetzbaren Pulvern (WP) oder als Emulsionskonzentrate (EC) formulierten erfindungsgemäßen Verbindungen wurden dann als wässrige Suspension bzw. Emulsion unter Zusatz von 0,5% Additiv mit einer Wasseraufwandmenge von umgerechnet 600 l/ha auf die grünen Pflanzenteile gesprüht. Nach ca. 3 Wochen Standzeit der Versuchspflanzen im Gewächshaus, unter optimalen Wachstumsbedingungen, wurde die Wirkung der Präparate visuell im Vergleich zu unbehandelten Kontrollen bonitiert. Beispielsweise bedeutet 100% Wirkung = Pflanzen sind abgestorben, 0% Wirkung = wie Kontrollpflanzen.
(§3) In den nachstehenden Tabellen A1 bis A11 sind die Wirkungen ausgewählter Verbindungen der allgemeinen Formel (I) gemäß der Tabelle 1 auf verschiedene Schadpflanzen und einer Aufwandmenge entsprechend 20 g/ha und niedriger, die gemäß zuvor genannter Versuchsvorschrift erhalten wurden, dargestellt. Tabelle A1a: Nachauflaufwirkung bei 1,25 g/ha gegen ABUTH in %

Setaria viridis = assay: Post-emergence herbicidal action in greenhouse against SETVI; conditions: visual rating after ca. 3 weeks
Source text: as §1, §2, §3

Triticum aestivum = assay: Post-emergence action on crop plants in greenhouse, TRZAS; conditions: crop plant, visual rating after ca. 3 weeks, 100% = plants dead, 0% = like control plants
Source text: as §1
as §2, with “Kulturpflanzen” for “Unkrautpflanzen”
as §3, with “B1” for “A1”, “B4” for “A11”, “Kulturpflanzen” for “Schadpflanzen”, “B1a:” for “A1a:”, “ZEAMX” for “ABUTH”

Viola tricolor = assay: Post-emergence herbicidal action in greenhouse against VIOTR; conditions: visual rating after ca. 3 weeks
Source text: as §1, §2, §3

Polygonum convolvulus = assay: Post-emergence herbicidal action in greenhouse against POLCO; conditions: visual rating after ca. 3 weeks
Source text: as §1, §2, §3

Abutilon theophrasti = assay: Post-emergence herbicidal action in greenhouse against ABUTH; conditions: post-emergence spray, 600 l/ha water, visual rating after ca. 3 weeks vs untreated controls, 100% = plants dead, 0% = like control plants
Source text: as §1, §2, §3

Pharbitis purpurea = assay: Post-emergence herbicidal action in greenhouse against PHBPU; conditions: visual rating after ca. 3 weeks
Source text: as §1, §2, §3

Digitaria sanguinalis = assay: Post-emergence herbicidal action in greenhouse against DIGSA; conditions: visual rating after ca. 3 weeks
Source text: as §1, §2, §3

Veronica persica = assay: Post-emergence herbicidal action in greenhouse against VERPE; conditions: visual rating after ca. 3 weeks
Source text: as §1, §2, §3

Alopecurus myosuroides = assay: Post-emergence herbicidal action in greenhouse against ALOMY; conditions: 20 g/ha; post-emergence spray, 600 l/ha water; visual rating after ca. 3 weeks vs untreated controls; 100% = plants dead, 0% = like control plants
Source text: as §1, §2, §3

Oryza sativa = assay: Post-emergence action on crop plants in greenhouse, ORYZA; conditions: 1,25 g/ha, crop plant, visual rating after ca. 3 weeks, 100% = plants dead, 0% = like control plants
Source text: as §1
as §2, with “Kulturpflanzen” for “Unkrautpflanzen”
as §3, with “B1” for “A1”, “B4” for “A11”, “Kulturpflanzen” for “Schadpflanzen”, “B1a:” for “A1a:”, “ZEAMX” for “ABUTH”

Zea mays = assay: Post-emergence action on crop plants in greenhouse, ZEAMX; conditions: crop plant, 100% = plants dead, 0% = like control plants
Source text: as §1
as §2, with “Kulturpflanzen” for “Unkrautpflanzen”
as §3, with “B1” for “A1”, “B4” for “A11”, “Kulturpflanzen” for “Schadpflanzen”, “B1a:” for “A1a:”, “ZEAMX” for “ABUTH”

Amaranthus retroflexus = assay: Post-emergence herbicidal action in greenhouse against AMARE; conditions: post-emergence spray, 600 l/ha water, visual rating after ca. 3 weeks vs untreated controls, 100% = plants dead, 0% = like control plants
Source text: as §1, §2, §3

Lolium rigidum = assay: Post-emergence herbicidal action in greenhouse against LOLRI; conditions: 20 g/ha; post-emergence spray, 600 l/ha water; visual rating after ca. 3 weeks vs untreated controls; 100% = plants dead, 0% = like control plants
Source text: as §1, §2, §3

[1] = 1,25 g/ha, post-emergence, visual rating after ca. 3 weeks

| Nachauflaufwirkung gegen TRZAS (Triticum aestivum; 1,25 g/ha) [%] | Nachauflaufwirkung gegen TRZAS (Triticum aestivum; 5 g/ha) [%] | Compound | Nachauflaufwirkung gegen MATIN (Matricaria inodora; 5 g/ha) [%] | Nachauflaufwirkung gegen MATIN (Matricaria inodora; 20 g/ha) [%] | Nachauflaufwirkung gegen SETVI (Setaria viridis; 1,25 g/ha) [%] | Nachauflaufwirkung gegen SETVI (Setaria viridis; 5 g/ha) [%] | Nachauflaufwirkung gegen SETVI (Setaria viridis; 20 g/ha) [%] | Nachauflaufwirkung gegen VIOTR (Viola tricolor; 1,25 g/ha) [%] | Nachauflaufwirkung gegen VIOTR (Viola tricolor; 5 g/ha) [%] | Nachauflaufwirkung gegen VIOTR (Viola tricolor; 20 g/ha) [%] | Nachauflaufwirkung gegen POLCO (Polygonum convolvulus; 20 g/ha) [%] | Nachauflaufwirkung gegen ABUTH (Abutilon theophrasti; 1,25 g/ha) [%] | Nachauflaufwirkung gegen ABUTH (Abutilon theophrasti; 5 g/ha) [%] | Nachauflaufwirkung gegen ABUTH (Abutilon theophrasti; 20 g/ha) [%] | Nachauflaufwirkung gegen PHBPU (Pharbitis purpurea; 1,25 g/ha) [%] | Nachauflaufwirkung gegen PHBPU (Pharbitis purpurea; 5 g/ha) [%] | Nachauflaufwirkung gegen PHBPU (Pharbitis purpurea; 20 g/ha) [%] | Nachauflaufwirkung gegen DIGSA (Digitaria sanguinalis; 5 g/ha) [%] | Nachauflaufwirkung gegen DIGSA (Digitaria sanguinalis; 20 g/ha) [%] | Nachauflaufwirkung gegen VERPE (Veronica persica; 5 g/ha) [%] | other results |
| --- | --- | --- | --- | --- | --- | --- | --- | --- | --- | --- | --- | --- | --- | --- | --- | --- | --- | --- | --- | --- | --- |
| 0 | 0 | C=CCOC(=O)C(C)(C)OC(=O)c1cc(-n2c(=O)cc(C(F)(F)F)n(N)c2=O)ccc1Cl [I.2-471] | 90 | 100 | 100 | 100 | 100 | 100 | 100 | 100 | 100 | 90 | 100 | 100 | 100 | 100 | 100 | 100 | 100 | 100 | Nachauflaufwirkung gegen TRZAS (Triticum aestivum; 20 g/ha): 10%; Nachauflaufwirkung gegen VERPE (Veronica persica; 1,25 g/ha): 100%; Nachauflaufwirkung gegen VERPE (Veronica persica; 20 g/ha): 100%; Nachauflaufwirkung gegen ALOMY (Alopecurus myosuroides): 80%; Nachauflaufwirkung gegen ORYZA (Oryza sativa): 0%; Nachauflaufwirkung gegen ZEAMX (Zea mays; [1]): 20%; Nachauflaufwirkung gegen ZEAMX (Zea mays; 5 g/ha, post-emergence spray, 600 l/ha water, visual rating after ca. 3 weeks vs untreated controls): 20%; Nachauflaufwirkung gegen AMARE (Amaranthus retroflexus; 1,25 g/ha): 100%; Nachauflaufwirkung gegen AMARE (Amaranthus retroflexus; 5 g/ha): 100%; Nachauflaufwirkung gegen AMARE (Amaranthus retroflexus; 20 g/ha): 100% |
| 0 | 0 | CC(C)=NOC(=O)C(C)(C)OC(=O)c1cc(-n2c(=O)cc(C(F)(F)F)n(N)c2=O)c(F)cc1Cl [I.1-491] | 100 | 100 | 100 | 100 | 100 | 80 | 100 | 100 | 100 | 100 | 100 | 100 | 100 | 100 | 100 | 100 | 100 | 100 | Nachauflaufwirkung gegen LOLRI (Lolium rigidum): 80%; Nachauflaufwirkung gegen VERPE (Veronica persica; 20 g/ha): 100%; Nachauflaufwirkung gegen ALOMY (Alopecurus myosuroides): 100%; Nachauflaufwirkung gegen ORYZA (Oryza sativa): 0%; Nachauflaufwirkung gegen ZEAMX (Zea mays; [1]): 20%; Nachauflaufwirkung gegen AMARE (Amaranthus retroflexus; 1,25 g/ha): 100%; Nachauflaufwirkung gegen AMARE (Amaranthus retroflexus; 5 g/ha): 100%; Nachauflaufwirkung gegen AMARE (Amaranthus retroflexus; 20 g/ha): 100% |
| 0 | 20 | CC(C)(OC(=O)c1cc(-n2c(=O)cc(C(F)(F)F)n(N)c2=O)c(F)cc1Cl)C(=O)OCC#N [I.1-176, 1-(Cyanmethoxy)-2-methyl-1-oxopropan-2-yl-5-[3-amino-2,6-dioxo-4-(trifluormethyl)-3,6-dihydropyrimidin-1(2H)-yl]-2-chlor-4-fluorbenzoat] | 100 | 100 | 100 | 100 | 100 | 90 | 100 | 100 | 100 | 100 | 100 | 100 | 90 | 100 | 100 | 100 | 100 | 100 | Nachauflaufwirkung gegen POLCO (Polygonum convolvulus; 5 g/ha): 100%; Nachauflaufwirkung gegen LOLRI (Lolium rigidum): 80%; Nachauflaufwirkung gegen VERPE (Veronica persica; 1,25 g/ha): 80%; Nachauflaufwirkung gegen VERPE (Veronica persica; 20 g/ha): 100%; Nachauflaufwirkung gegen ALOMY (Alopecurus myosuroides): 100%; Nachauflaufwirkung gegen ORYZA (Oryza sativa): 20%; Nachauflaufwirkung gegen AMARE (Amaranthus retroflexus; 1,25 g/ha): 100%; Nachauflaufwirkung gegen AMARE (Amaranthus retroflexus; 5 g/ha): 100%; Nachauflaufwirkung gegen AMARE (Amaranthus retroflexus; 20 g/ha): 100% |
